Results published in patent US20170270277A1, “METHOD FOR SUPERVISING CONSUMPTION OF A MEDICAL FOOD FOR PREVENTION AND/OR MANAGEMENT OF A DISEASE OR CONDITION” (Photonz Corporation Ltd., priority 2012, published 2017).

Assay: Laboratory test of the patient's serum lipids after consumption of the medical food, change from baseline (Example 4)
Assay type: in vivo
Conditions: 'one or more of'
Excerpt: “Blood data” as used herein includes levels of cholesterol, diglycerides and triglycerides amongst other parameters described herein. Blood data parameters can be measured in accordance with any clinically acceptable methodology. For example, triglycerides, total cholesterol, HDL-C and fasting blood sugar can be sampled from serum and analyzed using standard photometry techniques. VLDL-TG, LDL-C and VLDL-C can be calculated or determined using serum lipoprotein fractionation by preparative ultracentrifugation and subsequent quantitative analysis by refractometry or by analytic ultracentrifugal methodology. Apo AI, Apo B and hsCRP can be determined from serum using standard nephelometry techniques. Lipoprotein (a) can be determined from serum using standard turbidimetric immunoassay techniques. LDL particle number and particle size can be determined using nuclear magnetic resonance (NMR) spectrometry. Remnants lipoproteins and LDL-phospholipase A2 can be determined from EDTA plasma or serum and serum, respectively, using enzymatic immunoseparation techniques. Oxidized LDL, intercellular adhesion molecule-1 and interleukin-6 levels can be determined from serum using standard enzyme immunoassay techniques. These techniques are described in detail in standard textbooks, for example Tietz Fundamentals of Clinical Chemistry, 6th Ed. (Burtis, Ashwood and Borter Eds.), WB Saunders Company. In one embodiment, subjects fast for up to 12 hours prior to blood sample collection, for example about 10 hours.
This is a further example of one particular embodiment of practicing the invention. The results presented in this example are expected to be generated.
A patient is concerned about maintaining good cardiovascular health and advises a medical professional of this desire. The patient may be risk of developing or be diagnosed of having mixed dyslipidemia, hyperlipidemia and hypertriglyceridemia.
The medical professional sets up a laboratory in accordance with clinically acceptable methodologies to determine the patient's serum lipids including triglycerides, total cholesterol, HDL cholesterol, LDL cholesterol and fasting blood sugar. The patient may have one or more of: a baseline triglyceride level of about 300 mg/dl to about 1500 mg/dl; baseline non-HDL-C value of about 200 mg/dl to about 400 mg/dl; baseline total cholesterol value of about 250 mg/dl to about 400 mg/dl; baseline vLDL-C value of about 140 mg/dl to about 200 mg/dl; baseline HDL-C value of about 10 to about 60 mg/dl; and/or baseline LDL-C value of about 50 to about 300 mg/dl.
Additional patient registration data including age, sex, weight, relative level of fitness and health, history of illness, family history of illness, and current prescribed pharmaceutical medications and medical foods and dosages, are also accumulated as a data set on a back end computer. The medical professional queries the backend computer about the patient's laboratory data and lifestyle metrics and this back end computer calculates the dose of the EPA-ethyl ester to be provided to the patient as a medical food for a certain period of time based on the analyzed metrics in order for that patient's serum lipids to be returned to normal levels with a low risk of cardiovascular disease. […]
After consumption of the medical food for the specified period of time, the patient receives another laboratory test of their serum lipids and the data is analyzed for changes from the original baseline on the back end computer. […]

[1] = same patient and medical food dosing

## CC/C=C\C/C=C\C/C=C\C/C=C\C/C=C\CCCC(=O)OCC [EPA-ethyl ester, eicosapentaenoyl-ethyl ester]
Patient at risk of or with mixed dyslipidemia, hyperlipidemia, hypertriglyceridemia, 1 to 4 g of at least 60% pure EPA-ethyl ester 1 to 4 times per day
  triglyceride levels compared to baseline: reduced
[1]
  Apo B levels compared to baseline: reduced
  HDL-C levels compared to baseline: increased
  non-HDL-C levels compared to baseline: a reduction
  vLDL levels compared to baseline: a reduction
